We go through one compound from article PMC4894402, “Characterization of the honeybee AmNaV1 channel and tools to assess the toxicity of insecticides” (Scientific Reports, 2015).

In the experiment the target is T1, AmNaV1 (Apis mellifera NaV1 voltage-gated sodium channel) (Apis mellifera, UniProt C9D7C5).
T1 construct: gene PARA; AmNaV1 channel expressed in Xenopus oocytes; with TipE regulatory subunit (honeybee)
Briefly: two-microelectrode voltage-clamp in Xenopus oocytes, tail current dose-response. The experiment is classed as cell-based.

pEC50: −log10 of the molar value.

T1 sequence (C9D7C5 1-2044): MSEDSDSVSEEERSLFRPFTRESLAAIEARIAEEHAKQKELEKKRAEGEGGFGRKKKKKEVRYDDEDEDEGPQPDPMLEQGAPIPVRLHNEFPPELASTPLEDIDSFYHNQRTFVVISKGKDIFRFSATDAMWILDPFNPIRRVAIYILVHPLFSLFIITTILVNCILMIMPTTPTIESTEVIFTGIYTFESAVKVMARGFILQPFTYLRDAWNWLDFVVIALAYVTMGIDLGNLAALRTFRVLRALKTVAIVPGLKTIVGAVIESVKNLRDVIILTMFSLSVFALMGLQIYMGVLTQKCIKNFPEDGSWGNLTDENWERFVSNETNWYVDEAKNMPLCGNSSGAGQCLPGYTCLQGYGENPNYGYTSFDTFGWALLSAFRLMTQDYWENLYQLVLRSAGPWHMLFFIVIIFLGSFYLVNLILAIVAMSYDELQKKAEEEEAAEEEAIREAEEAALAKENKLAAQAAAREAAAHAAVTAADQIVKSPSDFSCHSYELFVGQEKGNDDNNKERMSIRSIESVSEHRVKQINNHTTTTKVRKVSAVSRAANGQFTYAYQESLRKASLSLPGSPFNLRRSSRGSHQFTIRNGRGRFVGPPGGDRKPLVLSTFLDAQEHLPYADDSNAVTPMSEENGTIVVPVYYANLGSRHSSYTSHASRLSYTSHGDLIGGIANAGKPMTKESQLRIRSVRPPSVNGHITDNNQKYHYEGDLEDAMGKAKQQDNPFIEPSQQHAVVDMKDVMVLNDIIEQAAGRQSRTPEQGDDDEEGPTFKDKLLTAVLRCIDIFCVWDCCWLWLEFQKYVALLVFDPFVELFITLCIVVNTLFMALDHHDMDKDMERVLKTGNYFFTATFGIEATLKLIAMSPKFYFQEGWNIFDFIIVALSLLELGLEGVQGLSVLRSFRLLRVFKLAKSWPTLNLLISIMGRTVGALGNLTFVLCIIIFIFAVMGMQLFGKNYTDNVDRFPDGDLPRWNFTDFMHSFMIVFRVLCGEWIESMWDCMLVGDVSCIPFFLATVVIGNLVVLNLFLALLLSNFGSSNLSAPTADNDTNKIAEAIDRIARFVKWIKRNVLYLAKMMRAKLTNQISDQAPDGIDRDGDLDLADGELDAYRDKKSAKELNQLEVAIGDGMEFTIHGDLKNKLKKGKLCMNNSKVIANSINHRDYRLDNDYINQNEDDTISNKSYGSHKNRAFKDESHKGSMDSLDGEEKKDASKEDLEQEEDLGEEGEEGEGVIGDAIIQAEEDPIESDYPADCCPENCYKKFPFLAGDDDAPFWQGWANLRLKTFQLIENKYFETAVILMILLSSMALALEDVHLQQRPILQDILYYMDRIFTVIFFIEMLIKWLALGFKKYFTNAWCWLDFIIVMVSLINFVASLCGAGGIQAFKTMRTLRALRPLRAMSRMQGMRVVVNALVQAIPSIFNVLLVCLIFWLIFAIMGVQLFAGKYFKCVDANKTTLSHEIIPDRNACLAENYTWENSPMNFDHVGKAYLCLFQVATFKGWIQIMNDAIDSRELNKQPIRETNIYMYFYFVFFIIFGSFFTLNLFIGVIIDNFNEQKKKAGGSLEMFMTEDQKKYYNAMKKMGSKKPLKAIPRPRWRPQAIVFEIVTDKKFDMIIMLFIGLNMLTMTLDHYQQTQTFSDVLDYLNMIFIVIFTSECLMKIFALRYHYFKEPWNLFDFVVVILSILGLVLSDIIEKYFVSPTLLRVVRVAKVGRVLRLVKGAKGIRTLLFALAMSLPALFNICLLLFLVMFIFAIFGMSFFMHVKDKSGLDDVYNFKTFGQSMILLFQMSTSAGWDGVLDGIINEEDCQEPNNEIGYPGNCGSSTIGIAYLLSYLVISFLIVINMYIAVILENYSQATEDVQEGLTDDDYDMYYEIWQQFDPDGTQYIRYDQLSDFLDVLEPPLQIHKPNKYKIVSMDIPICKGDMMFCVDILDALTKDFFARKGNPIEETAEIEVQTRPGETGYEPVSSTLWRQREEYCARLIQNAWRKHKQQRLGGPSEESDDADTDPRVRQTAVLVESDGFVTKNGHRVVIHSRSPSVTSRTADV
T1 sequence (A0A120HXK1 1-238 partner): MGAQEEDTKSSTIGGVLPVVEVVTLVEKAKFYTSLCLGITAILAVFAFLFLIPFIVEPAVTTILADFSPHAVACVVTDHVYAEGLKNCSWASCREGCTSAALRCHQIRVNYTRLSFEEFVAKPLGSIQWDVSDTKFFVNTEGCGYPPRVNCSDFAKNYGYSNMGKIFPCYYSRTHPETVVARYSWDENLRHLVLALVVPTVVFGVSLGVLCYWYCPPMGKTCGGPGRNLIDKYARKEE

What is called pEC50 is the EC50 on a negative log10 scale, so that one unit is a factor of ten. Higher therefore signals a small EC50. As to `CC(C)C(C(=O)OC(C#N)c1cccc(Oc2ccccc2)c1)c1ccc(Cl)cc1` (stereo not shown) [fenvalerate], the pEC50 is 6.54.
